Read-outs that look alike come from different tables or passages of the source. Marks after values point to notes of the source that are not given here.
Tests used:
[1] = tested on: colon carcinoma cell HCT116; assay: Tumor cell proliferation inhibitory activity test in vitro (MTT); assay type: cell-based, human; conditions: Homo sapiens, HCT-116, 72 hours, read-out: IC50 of compounds for tumor cells, Activity, HCT116
From the text: (§1) Human non-small cell lung cancer cell line NCI-H460, human small cell lung cancer cell line NCI-H446, human hepatocellular carcinoma cell strain HepG2, human colon carcinoma cell strain HCT116, human prostate cancer PC-3, human melanoma A375, colon carcinoma cell HCT-8, breast cancer cell MCF-7, ovarian cancer cell A2780s, drug-resistant ovarian cancer cell A2780/T, drug-resistant colon cancer cell HCT-8/T and doxorubicin-resistant breast cancer cell MCF-7/ADR are obtained from American Type Culture Collection (ATCC) and are cultured and preserved by the cell bank of State Key Laboratory of Biotherapy of Sichuan University. Above tumor cells are routinely cultured in DMEM culture medium containing 10% fetal bovine serum, 100 U·mL-1 penicillin and 100 mg·L−1 streptomycin, and in an incubator at 37° C. and with saturated humidity and 5% CO2 concentration.
(§2) Fill diluted cell suspension in the 96-well plate with 1000-10000 cells per well and incubate it in CO2 incubator overnight.
(§3) Replace with new medium containing various concentrations of compounds to be tested for the test group and replace with fresh medium with equal volume for the control group, each group is arranged with 5 parallel wells and incubated in an incubator at 37° C. and with 5% CO2 concentration.
(§4) Discard the supernatant after 72 hours, add 200 μL freshly prepared serum-free medium containing 0.2 mg/mL MTT into each well, continue to incubate at 37° C. for 1-4 hours, then stop incubation, carefully remove the culture supernatant in the wells and add 200 uL DMSO (dimethyl sulfoxide), oscillate with a miniature ultrasonic oscillator for 15-20 minutes to make the crystal fully dissolved and mixed. Determine OD values using a microplate reader at 570 nm with a reference wavelength of 450 nm.
(§5) Draw curves based on the growth inhibition rate for tumor cells of the same sample with different concentrations to get dose-response curve, so as to calculate IC50. Repeat each test for 3 times, measure IC50 (μM) or nanomolor concentration (nM) of compounds in different tumor cells.

[2] = tested on: hepatocellular carcinoma cell HEPG2; assay: as above; assay type: cell-based, human; conditions: Homo sapiens, HepG2, 72 hours, read-out: IC50 of compounds for tumor cells, Activity, HEPG2
From the text: as §1, §2, §3, §4, §5

prostate cancer PC-3 = assay: as above; assay type: cell-based, human; conditions: Homo sapiens, 72 hours, read-out: IC50 of compounds for tumor cells, Activity, PC-3
From the text: as §1, §2, §3, §4, §5

[3] = tested on: non-small cell lung cancer cell line NCI-H460; assay: as above; assay type: cell-based, human; conditions: Homo sapiens, NCI-H460, 72 hours, read-out: IC50 of compounds for tumor cells, Activity, H460
From the text: as §1, §2, §3, §4, §5

melanoma A375 = assay: as above; assay type: cell-based, human; conditions: Homo sapiens, A-375, 72 hours, read-out: IC50 of compounds for tumor cells, Activity, A375
From the text: as §1, §2, §3, §4, §5

[4] = tested on: ovarian cancer cell A2780s; assay: as above; assay type: cell-based; conditions: Homo sapiens, sensitive cells, 72 hours
From the text: as §1, §2, §3, §4, §5

breast cancer cell MCF-7 = assay: as above; assay type: cell-based; conditions: Homo sapiens
From the text: as §1, §2, §3, §4, §5

[5] = tested on: drug-resistant ovarian cancer cell A2780/T; assay: as above; assay type: cell-based; conditions: Homo sapiens, drug-resistant cells, 72 hours
From the text: as §1, §2, §3, §4, §5

[6] = tested on: human umbilical vein endothelial cells (HUVECs); assay: Wound healing test on HUVECs; assay type: cell-based; conditions: 24 h of cells migration
Method: (§8) Obtain neonate umbilical cords from clinical sources after being approved by relevant authorities, put them into sterile PBS solution, provide ice bags at the external to keep them under low temperature, and return to the clean bench to operate. Insert a blunt needle into the human umbilical vein and wash with sterile PBS solution for multiple times until cleaning up the tainted blood. Clamp the lower end of the cord with surgical clamps, add collagenase with 1 mg/mL concentration (purchased from Roche) for digestion for 15 to 20 minutes at room temperature and shake the cord up and down at intervals. After digestion, open the surgical clamp at the lower end, let the digestive solution flow into a 50 mL centrifuge tube and wash the cord for 2-3 times with sterile PBS solution. Centrifuge the collected solution for 3 minutes at 1500 rpm. Discard the supernatant, resuspend cells with EBM-2 medium (purchased from lonza) containing various growth factors and incubate them in an incubator at constant temperature of 37° C. with 5% CO2 concentration.
Collect HUVECs between the 3rd to 7th subculture generations and plate them in the 6-well plate. When the cells were about to form a confluent monolayer of cells, change the medium into a serum-free medium to starve the cells for 6 h. […]

[7] = tested on: microtubule in hepatocellular carcinoma cell HepG2; assay: Depolymerization on microtubule by immunofluorescence technique; assay type: cell-based, human; conditions: HepG2, 16 h, three concentrations
From the text: Place round coverslips into 6-well plate, plate hepatocellular carcinoma cell HepG2 in the 6-well plate and make the cells adhere to the round coverslips.

[8] = tested on: colon carcinoma cell HCT-8; assay: Tumor cell proliferation inhibitory activity test in vitro (MTT); assay type: cell-based; conditions: Homo sapiens, sensitive cells, 72 hours
From the text: as §1, §2, §3, §4, §5

[9] = tested on: doxorubicin-resistant breast cancer cell MCF-7/ADR; assay: as above; assay type: cell-based; conditions: Homo sapiens, NCI/ADR-RES, drug-resistant cells, 72 hours
From the text: as §1, §2, §3, §4, §5

[10] = tested on: mouse colon carcinoma C26; assay: Pharmacodynamics in tumor-bearing mice, colon carcinoma C26 model
Method: Collect tumor cells under aseptic conditions, adjust cell density to 5×10^7 cells/mL with sterilized physiological saline, subcutaneously inoculate 0.2 mL into armpit and back of nude mice, remove the tumor when it grew to 1 cm diameter under aseptic conditions, slice it into 1 mm×1 mm tumor blocks and evenly and subcutaneously inoculate it into armpit and back of nude mice for subculture. Remove the tumor under aseptic conditions after 2 subcultures and when it grew to 1 cm diameter, slice it into 1 mm×1 mm tumor blocks and evenly and subcutaneously inoculate it into armpit and back of nude mice. Conduct random grouping of animals after 7 days when the tumor grew to 100-300 mm^3 and perform tail intravenous injection (i.v.) once per two days, with dosages and administration methods shown in Table 3 and Table 4.
(1) Tumor volume (TV), relative tumor volume (RTV) and relative tumor proliferation rate: measure long diameter and short diameter of tumor in every two days using a vernier caliper or ruler with 1/50 mm precision and dynamically observe anti-tumor effects of tested drugs.
Formula for calculating tumor volume (TV) is: TV (mm3)=a×b^2×π/6; wherein a and b stand for long diameter and short diameter respectively.
Calculate relative tumor volume (RTV) based on the measured results with formula: RTV=Vt/V0, wherein V0 stands for the measured TV of each group at the time of being grouped for administration (i.e. d0) and Vt stands for the TV value of each group for every measurement.
The indicator used to evaluate anti-tumor activity is the relative tumor proliferation rate T/C (%), with the calculating formula as following:
TRTV: relative tumor volume of treated group; CRTV: relative tumor volume of negative control group.
Kill the animal at the end of treatment, dissect and remove the tumor, weigh the tumor and take a picture. The tumor inhibition rate (%) is calculated as the following formula:

plural tumor cells = conditions: cited from earlier work
HCT-8/V = assay: Tumor cell proliferation inhibitory activity test in vitro (MTT); assay type: cell-based; conditions: Homo sapiens, drug-resistant cells, 72 hours
[11] = tested on: human umbilical vein endothelial cells (HUVECs); assay: Angiogenesis test on HUVECs; assay type: cell-based; conditions: Matrigel, 8 h treatment
Method: as §8
Place Matrigel (purchased from Becton Dickinson (BD)) at 4° C. and make it in liquid state; precool the pipette tip, 96-well plate and EP tube to be used in the test.
Add Matrigel into the 96-well plate at 50 μL/well and incubate it in an incubator at 37° C. with CO2 concentration for 45 min to make it solidify. […]

[12] = tested on: taxol-resistant ovarian cancer cell A2780/Taxol; assay: Pharmacodynamics in tumor-bearing nude mice, A2780/Taxol model; assay type: in vivo, mouse
From the text: (§6) Test condition: animal house of SPF level, use permit No. of experiment animals: SYXK (J) 2015-0023
(§7) Weigh the mouse and measure length and width of tumor using a vernier caliper in every two days, perform cervical dislocation for the nude mice after 20 days of drug administration, remove the tumor tissues, weigh and take a picture. Calculate tumor inhibition rate (%) eventually to evaluate anti-tumor effects.

[13] = tested on: human ovarian cancer cell A2780S; assay: Pharmacodynamics in tumor-bearing nude mice, A2780S model; assay type: in vivo, mouse
From the text: as §6, §7

tumor = conditions: cited from earlier work
[14] = MCF7, 72 hours, read-out: IC50 of compounds for tumor cells, Activity, MCF-7
[15] = MCF7, sensitive cells, 72 hours, read-out: IC50/nM MCF-7
[16] = subcutaneously transplanted mouse colon carcinoma C26, 5 mg/kg i.v. once/two days
[17] = A2780/T model, 30 mg/kg intraperitoneal once/seven days
[18] = cells marked (μM), read-out: IC50 MCF-7/ADR
[19] = cells marked (μM), read-out: IC50 HCT-8/V
[20] = A2780s model, 30 mg/kg intraperitoneal once/seven days

| SMILES | IC50 [1] | IC50 [2] | IC50 (prostate cancer PC-3) | IC50 [3] | IC50 (melanoma A375) | IC50 [4] | IC50 (breast cancer cell MCF-7; [14]) | IC50 [5] | IC50 [8] | IC50 (breast cancer cell MCF-7; [15]) | also measured |
| --- | --- | --- | --- | --- | --- | --- | --- | --- | --- | --- | --- |
| COc1ccc(N(C)c2cc(=O)oc3ccccc23)cc1OC(=O)C1CCCC1 [COUM-73, 4-(N-methyl-N-(4-methoxy-3-(cyclopentyl-carbonyloxy)benzene)-amino) Coumarin] | 0.01 to 10 nM | 0.01 to 10 nM | 0.01 to 10 nM | 0.01 to 10 nM | 0.01 to 10 nM | 1.68 ± 0.075 nM | 0.01 to 10 nM | 3.34 ± 0.101 nM | – | – | – |
| COc1ccc(N(C)c2cc(=O)oc3ccccc23)cc1NC(=O)C1CCCC1 [COUM-97, 4-(N-methyl-N-(4-methoxy-3-(cyclopentylcarbonylamino)phenyl)-amino) Coumarin] | 100 to 5000 nM | 100 to 5000 nM | 100 to 5000 nM | 100 to 5000 nM | 100 to 5000 nM | – | 100 to 5000 nM | – | – | – | – |
| COc1ccc(N(C)c2cc(=O)oc3ccccc23)cc1NC(=O)CCC(=O)O [COUM-98, 4-(N-methyl-N-(4-methoxy-3-(1-carboxylic acid-propanecarbonylamino-)phenyl)-amino) Coumarin] | 100 to 5000 nM | 100 to 5000 nM | 100 to 5000 nM | 100 to 5000 nM | 100 to 5000 nM | – | 100 to 5000 nM | – | – | – | – |
| COc1ccc(N(C)c2nc(C)nc3ccccc23)cc1 [MPC-6827] | 0.01 to 10 nM | 0.01 to 10 nM | 0.01 to 10 nM | 0.01 to 10 nM | 0.01 to 10 nM | 3.16 ± 0.034 nM | 0.01 to 10 nM | 4.11 ± 0.062 nM | 3.12 ± 0.066 nM | 0.581 ± 0.004 nM | Inhibition of migration of HUVECs [6]: inhibit migration of HUVECs in a dose-dependent manner; Inhibition of polymerization of microtubule (immunofluorescence observation) [7]: fails to form orderly filamentous structures due to inhibited polymerization; IC50 ([9]; read-out: IC50/nM MCF-7/ADR): 0.699 ± 0.053 nM; Mouse weight during the treatment ([10]; colon carcinoma C26 model, 5 mg/kg i.v. once/two days): significant drops in weight and even died; Average tumor weight [10, 16]: 0.525 g; Tumor inhibition rate (%) [10, 16]: 78.66%; IC50 (plural tumor cells): 1 to 10 nM; IC50 (HCT-8/V; read-out: IC50/nM HCT-8/V): 3.75 ± 0.131 nM; Inhibition of angiogenesis of HUVECs [11]: inhibit angiogenesis of HUVECs in a dose-dependent manner |
| CC(=O)O[C@H]1C(=O)[C@@]2(C)[C@H]([C@H](OC(=O)c3ccccc3)[C@]3(O)C[C@H](OC(=O)[C@H](O)[C@@H](NC(=O)c4ccccc4)c4ccccc4)C(C)=C1C3(C)C)[C@]1(OC(C)=O)CO[C@@H]1C[C@@H]2O [Taxol] | – | – | – | – | – | 58.1 ± 24.1 nM | – | 8120 ± 185 nM | 37 ± 23.9 nM | 32.3 ± 19.5 nM | Death rate [12, 17]: 0/6; T/C (%) [12, 17]: 75.4%; Tumor volume (mm^3) Final [12, 17]: 936.4 ± 347.9^ mm^3; Tumor volume (mm^3) Initial [12, 17]: 155.6 ± 20.6 mm^3; Tumor weight (g) X ± SD [12, 17]: 0.79 ± 0.41 ^ g; Tumor weight Inhibition rate % [12, 17]: 37.7%; Mouse weight (g) Final ([12]; mouse, in vivo, ip, 30 mg/kg): 19.4 ± 1.0 g; Mouse weight (g) Initial ([12]; mouse, in vivo, ip, 30 mg/kg): 20.3 ± 0.8 g; IC50 [9, 18]: 9150 nM; IC50 (HCT-8/V; [19]): 189 ± 52 nM; Death rate [13, 20]: 0/6; Mouse weight (g) Final [13, 20]: 18.2 ± 0.4 g; Mouse weight (g) Initial [13, 20]: 21.0 ± 0.7 g; T/C (%) [13, 20]: 13.1%; Tumor volume (mm^3) Final [13, 20]: 184.8 ± 26.6 ^c mm^3; Tumor volume (mm^3) Initial [13, 20]: 138.1 ± 25.6 mm^3; Tumor weight (g) X ± SD [13, 20]: 0.28 ± 0.07 ^c g; Tumor weight Inhibition rate % [13, 20]: 82.9%; Weight drop in average ([13]; mouse, in vivo): about 2 g |
| CC[C@]1(O)C[C@H]2CN(CCc3c([nH]c4ccccc34)[C@@](C(=O)OC)(c3cc4c(cc3OC)N(C=O)[C@H]3[C@@](O)(C(=O)OC)[C@H](OC(C)=O)[C@]5(CC)C=CCN6CC[C@]43[C@@H]65)C2)C1 [Vincristin, vincristin] | – | – | – | – | – | 22.4 ± 2.68 nM | – | 476 ± 76.1 nM | 14.8 ± 3.15 nM | 54.7 nM | IC50 [9, 18]: 5850 ± 1390 nM; IC50 (HCT-8/V; [19]): 23 ± 4 nM |
| COc1ccc2c(-c3ccc(OC)c(O)c3)cc(=O)oc2c1 [compound C] | – | – | – | – | – | – | – | – | – | – | IC50 value, anti-tumor activity (tumor): dozens of nanomolar |

Source: patent US10544134B2, “4-substituted coumarin derivatives and preparation methods and uses thereof” (SI CHUAN UNIVERSITY, priority 2015, dated 2020)
